Experiment [1] concerns the target T1, Human recombinant sEH (Homo sapiens, UniProt P34913).
T1 construct: purchased Cayman Chemical (Ann Arbor, MI, USA) 10011669
T1 sequence (P34913 1-555): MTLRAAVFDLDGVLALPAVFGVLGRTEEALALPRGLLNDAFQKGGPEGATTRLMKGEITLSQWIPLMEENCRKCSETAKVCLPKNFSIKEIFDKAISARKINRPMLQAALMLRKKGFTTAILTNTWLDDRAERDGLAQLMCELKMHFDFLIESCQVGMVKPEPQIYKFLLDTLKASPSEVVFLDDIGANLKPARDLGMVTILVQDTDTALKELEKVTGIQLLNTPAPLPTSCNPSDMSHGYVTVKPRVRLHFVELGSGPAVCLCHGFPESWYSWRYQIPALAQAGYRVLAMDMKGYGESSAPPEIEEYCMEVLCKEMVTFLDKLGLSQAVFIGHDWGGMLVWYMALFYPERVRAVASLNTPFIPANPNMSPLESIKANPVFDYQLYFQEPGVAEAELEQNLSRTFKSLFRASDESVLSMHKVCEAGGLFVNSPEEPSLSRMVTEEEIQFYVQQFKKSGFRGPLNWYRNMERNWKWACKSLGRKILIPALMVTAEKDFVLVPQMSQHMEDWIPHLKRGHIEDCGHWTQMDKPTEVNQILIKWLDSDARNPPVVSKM
Kind of experiment: sEH assay (fluorescent substrate hydrolysis, inhibitory activity and IC50). The class given is biochemical. Particulars: for inhibition at 100 µM: read-out: Inhibitory Activity at 100 μM (%); for IC50: sEH inhibition.

Experiment [2] concerns the target T1, Human recombinant sEH. Kind of experiment: sEH enzyme kinetics (Lineweaver–Burk and Dixon plots). Particulars: for Ki: Dixon plot analysis; for Binding Mode: Lineweaver–Burk plot. It counts as biochemical.
Where [3] appears, read: compound at 100 μM, tested three times.

Entries after “also recorded” stand apart in the source; their conditions may differ. Where two headings read alike, the source gives them in different places.

As for `O=C1C[C@@H](c2ccc(O)cc2)Oc2cc(O)ccc21` [Compound 1, liquiritigenin], on Human recombinant sEH [1], the “sEH inhibitory effect (in words)” value is given as “moderate inhibitory effects”, the inhibition at 100 µM came out at 61.5 ± 1.2% and the IC50 amounted to 40.1 ± 1.2 µM. In addition, at Human recombinant sEH [2], the inhibitory constant (Ki) came out at 63.1 µM and the “Binding Mode” value was “noncompetitive inhibitors; also recorded: non-competitive”.

Turning to `O=C1C[C@@H](c2ccc(O[C@@H]3O[C@H](CO)[C@@H](O)[C@H](O)[C@H]3O)cc2)Oc2cc(O)ccc21` [Compound 2, liquiritin], the inhibition at 100 µM at Human recombinant sEH [1] (setting [3]) worked out at 46.8 ± 0.8%.

Regarding `O=C(/C=C/c1ccc(O)cc1)c1ccc(O)cc1O` [Compound 4, isoliquiritigenin], the half-inhibitory concentration (IC50) at Human recombinant sEH [1] was determined as 17.6 ± 0.6 µM. In addition, on Human recombinant sEH [2], the Ki is 24.2 µM and the “Binding Mode” value is listed as “Noncompetitive”.

As for `O=C(/C=C/c1ccc(O[C@@H]2O[C@H](CO)[C@@H](O)[C@H](O)[C@H]2O)cc1)c1ccc(O)cc1O` [Compound 5, isoliquiritin], the inhibition at 100 µM on Human recombinant sEH [1] (setting [3]) is 80.2 ± 0.3%. In addition, at Human recombinant sEH [1], the IC50 was 25.8 ± 0.2 µM. Besides, at Human recombinant sEH [2], the Ki stood at 48.8 µM and the “Binding Mode” value is “Noncompetitive”.

In the case of `COc1cc(O)ccc1C(=O)/C=C/c1ccc(O)cc1` [Compound 7, 2′-methoxyisoliquiritigenin], at Human recombinant sEH [1] (setting [3]), the inhibition at 100 µM was 85.1 ± 0.3%. Further, at Human recombinant sEH [1], the IC50 is 16.2 ± 0.3 µM. For the same compound, on Human recombinant sEH [2], the Ki amounted to 19.8 µM and the “Binding Mode” value was “competitive inhibitors”.

Consider `COc1ccc(-c2coc3cc(O[C@@H]4O[C@H](CO)[C@@H](O)[C@H](O)[C@H]4O)ccc3c2=O)cc1` [Compound 8, ononin], for which the inhibition at 100 µM at Human recombinant sEH [1] (setting [3]) worked out at 60.7 ± 1.3%. For the same compound, on Human recombinant sEH [1], the IC50 was found to be 35.7 ± 0.7 µM. For the same compound, at Human recombinant sEH [2], the Ki turned out to be 54.4 µM and the “Binding Mode” value is listed as “competitive inhibitors”.

Turning to `COc1c(CC=C(C)C)c(O)cc2oc(=O)c3c4ccc(O)cc4oc3c12` [Compound 9, glycyrol], the inhibition at 100 µM on Human recombinant sEH [1] (setting [3]) came to 69.5 ± 0.5%. Moreover, the IC50 at Human recombinant sEH [1] turned out to be 42.5 ± 1.5 µM. Further, at Human recombinant sEH [2], the Ki stood at 41.1 µM and the “Binding Mode” value is “noncompetitive inhibitors; also recorded: non-competitive”.

For `COc1c(CC=C(C)C)c(O)cc2oc(=O)c(-c3ccc(O)cc3O)cc12` [Compound 10, glycycoumarin], the inhibition at 100 µM on Human recombinant sEH [1] (setting [3]) is above 100%. Further, the “sEH inhibitory effect (in words)” value at Human recombinant sEH [1] (conclusion statement) is reported as “potent effect”. In addition, at Human recombinant sEH [1], the IC50 was 1.9 ± 0.2 µM. Also, at Human recombinant sEH [2], the Ki came out at 2 µM and the “Binding Mode” value was “competitive inhibitors”.

Turning to `CC(C)=CCc1cc(-c2coc3cc(O)c(CC=C(C)C)c(O)c3c2=O)cc(O)c1O` [Compound 11, isoangustone A], the inhibition at 100 µM at Human recombinant sEH [1] (setting [3]) was 68.4 ± 3.1%. Besides, the “sEH inhibitory effect (in words)” value on Human recombinant sEH [1] (conclusion statement) is “moderate inhibitory effects”. In addition, the IC50 at Human recombinant sEH [1] was 85.7 ± 1.2 µM. On Human recombinant sEH [2], the Ki was 75.6 µM and the “Binding Mode” value is “noncompetitive inhibitors; also recorded: non-competitive”.

Take `CC1(C)[C@@H](O[C@H]2O[C@H](C(=O)O)[C@@H](O)[C@H](O)[C@H]2O[C@@H]2O[C@H](C(=O)O)[C@@H](O)[C@H](O)[C@H]2O)CC[C@]2(C)[C@H]3C(=O)C=C4[C@@H]5C[C@@](C)(C(=O)O)CC[C@]5(C)CC[C@@]4(C)[C@]3(C)CC[C@@H]12` [Glycyrrhizin, reference compound]: on Human recombinant sEH [1] (setting [3]), the inhibition at 100 µM was found to be 18.4%. Besides, the “sEH inhibitory effect (in words)” value on Human recombinant sEH [1] (conclusion statement) is “lacked such an effect”.

As to isoliquiritin apioside [Compound 6], the “Inhibitory Activity at 100 μM (%)” value at Human recombinant sEH [1] (setting [3]) is 79.3 ± 1.4%. Besides, the “Binding Mode” value on Human recombinant sEH [2] is on record as “Noncompetitive”.

Consider liquiritin apioside [Compound 3], for which the “Inhibitory Activity at 100 μM (%)” value on Human recombinant sEH [1] (setting [3]) came out at 57.6 ± 1.1%. The “Binding Mode” value on Human recombinant sEH [2] was “competitive inhibitors”.

In general, IC50 refers to the concentration that gives 50% inhibition. Usually Ki stands for the dissociation constant of the complex between target and ligand, obtained from inhibition or displacement.

Values taken from paper PMC10095357, “Inhibition of Soluble Epoxide Hydrolase Activity by Components of Glycyrrhiza uralensis” (International Journal of Molecular Sciences, 2023).
